These results are taken from PubChem BioAssay AID322 (DTP/NCI, 2004).

Values joined by “and” are separate entries in the source; they are usually repeats but may differ in a detail not shown here. Identical values can stand only once. Toxic doses and inconclusive results are not listed.

In this assay the test system is CD2F1 mice, P388/ADR leukemia ip, median survival T/C. Nature of the assay: NCI In Vivo Anticancer Drug Screen. Data for tumor model P388 Leukemia resistant to Adriamycin; NSC 123127, Developed at Scr 08 (intraperitoneal) in CD2F1 (CDF1) mice. The note with it: endpoint: median survival time, higher = longer survival. The method, then:
The antitumor activity of compounds was measured in mice bearing transplantable tumors. Survival or tumor size were measured and the results are expressed as the measurement made in the treated group (T) divided by the measurement made in the vehicle treated control group (C). The tumor model used in this assay is P388 Leukemia resistant to Adriamycin; NSC 123127, Developed at Scr 08 (intraperitoneal) in CD2F1 (CDF1) mice

As to `CNC(=O)OCc1nc(SC)n(C)c1COC(=O)NC`, the T/C (dose: 30.0 mg/kg/injection, schedule: Q01DX005 (ip), vehicle: saline) is 155 % of control; the T/C (dose: 40.0 mg/kg/injection, schedule: Q01DX005 (ip), vehicle: saline) is 154 % of control; the T/C (dose: 50.0 mg/kg/injection, schedule: Q01DX005 (ip), vehicle: saline) is 158 % of control; the T/C (dose: 51.0 mg/kg/injection, schedule: Q01DX005 (ip), vehicle: saline) was 163 % of control; the T/C (dose: 65.0 mg/kg/injection, schedule: Q01DX005 (ip), vehicle: saline) was 155 % of control; the T/C (dose: 77.0 mg/kg/injection, schedule: Q01DX005 (ip), vehicle: saline) is 91 % of control.

With `O=C(O)CCCc1ccc(N(CCCl)CCCl)cc1`, the T/C runs as follows: (dose: 1.25 mg/kg/injection, schedule: Q01DX005 (ip), vehicle: saline with Tween-80) 120 % of control; (dose: 10.0 mg/kg/injection, schedule: Q01DX005 (ip), vehicle: saline with Tween-80) 205 % of control.

In the case of `COc1nc(C(Cl)(Cl)Cl)c(Cl)c(OC)c1Cl`, the T/C reads like this: (dose: 50.0 mg/kg/injection, schedule: Q01DX005 (ip), vehicle: Klucel (hydroxypropylcellulose) (HPC)) 114 % of control; (dose: 90.0 mg/kg/injection, schedule: Q01DX005 (ip), vehicle: Klucel (hydroxypropylcellulose) (HPC)) 124 % of control.

Regarding `Nc1nc(F)nc2c1ncn2C1OC(COP(=O)(O)O)C(O)C1O` (centres undefined), the T/C was 219 % of control and 239 % of control (dose: 60.0 mg/kg/injection, schedule: Q01DX009 (ip), vehicle: saline); 309 % of control and 429 % of control (dose: 90.0 mg/kg/injection, schedule: Q01DX009 (ip), vehicle: saline); 309 % of control and 445 % of control (dose: 134.0 mg/kg/injection, schedule: Q01DX009 (ip), vehicle: saline); 309 % of control and 394 % of control (dose: 200.0 mg/kg/injection, schedule: Q01DX009 (ip), vehicle: saline); 108 % of control (dose: 250.0 mg/kg/injection, schedule: Q01DX009 (ip), vehicle: saline).

On to `O=NN(CCCl)C(=O)NCCCl`, for which the T/C is 108 % of control and 123 % of control (dose: 5.0 mg/kg/injection, schedule: Q01DX001 (ip), vehicle: saline + alcohol); 150 % of control and 195 % of control (dose: 20.0 mg/kg/injection, schedule: Q01DX001 (ip), vehicle: saline + alcohol); 270 % of control and 309 % of control (dose: 40.0 mg/kg/injection, schedule: Q01DX001 (ip), vehicle: saline + alcohol); 90 % of control (dose: 80.0 mg/kg/injection, schedule: Q01DX001 (ip), vehicle: saline + alcohol).
